{
  "source": "patent US10960037B2",
  "about": "“Method of treating neurological conditions with extract of Nerium species or Thevetia species” (PHOENIX BIOTECHNOLOGY, INC., priority 2010, dated 2021)",
  "system": "5×-ARE-luciferase transcriptional reporter in primary corticostriatal neuronal co-cultures",
  "assay": "Nrf2 activation, 5×ARE-luciferase reporter assay",
  "format": "cell-based, mouse",
  "conditions": "7 h and 24 h treatment",
  "method": "Activation of the 5×-ARE luciferase reporter became stronger with an apparent left-shift in concentration-response for extended treatment over 24 h compared to 7 h. Fold-expression changes are expressed relative to the DMSO-carrier only condition (“0”) normalized to a co-transfected, constitutive Renilla luciferase control and set to a value of 1.\nPrimary corticostriatal neuronal co-cultures were prepared from E18 Sprague-Dawley rat or C57Bl/6 mouse embryos of either gender. For luciferase reporter assays, the Cignal Antioxidant Response Reporter kit (Qiagen) was used. The 5×ARE luciferase reporter mixture at 40:1 luciferase:Renilla plasmid was transfected into cortical and striatal neurons separately using an Amaxa electroporation device (Lonza). After electroporation, neurons were pooled and immediately plated into 96-well plates containing mature glial cultures. After culturing for 96 h, neuroprotective compositions were added at the indicated concentrations for 7 or 24 h prior to harvesting using Dual-Glo Luciferase Assay System protocol and reagents (Promega). Dual-wavelength luminescence was detected using a SpectraMax L microplate reader (Molecular Devices). Luciferase values were normalized to the internal Renilla control and fold-expression over the DMSO-only treatment control was calculated. At least 3 independent experiments were done using 4-6 biological replicates.",
  "data": [
    {"compound": "CC1(C)CC[C@]2(C(=O)O)CC[C@]3(C)[C@H](C(=O)C=C4[C@@]5(C)C=C(C#N)C(=O)C(C)(C)[C@@H]5CC[C@]43C)[C@@H]2C1", "note": "[bardoxolone]", "values": [
      {"measurement": "induction of 5×-ARE-luciferase reporter", "value": "Concentration- and time-dependent induction"}
    ]}
  ]
}
